Results on 33 compounds are retold here after US8759537B2, “3H-imidazo [4, 5-C] pyridine-6-carboxamides as anti-inflammatory agents” (Boehringer Ingelheim International GmbH, priority 2010, dated 2014).

Each structure is given as a SMILES string.

Experiment [1] has as its target T1, mPGES-1 (Homo sapiens (Human), UniProt O14684). Description: A549 cell-based assay (PGE2 formation, IL-1β stimulated, 50% human serum). As to conditions: A549 cells, IL-1β 5 ng/ml, read-out: mPGES-1 inhibitory effect in the cell assay, IC50. Put shortly:
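Human A549 cells (7000 cells/well) in F-12 medium with 50% human serum, with IL-1β stimulation. IC50 from 6-8 point titrations.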

Experiment [2] addresses T1, mPGES-1. Description: mPGES-1 enzyme assay (HTRF detection of PGE2). The conditions noted are these: recombinant human mPGES-1 microsomes, PGH2 2 μM; read-out: mPGES-1 inhibitory effect in the enzyme assay, IC50. The class given is biochemical. As for the experimental part: Microsomes from Rosetta E. coli bacteria expressing recombinant human mPGES-1 can be derived as described below:
Inoculate 5 ml LB with Ampicilin (50 μg/ml) and Chloramphenicol (34 μg/ml) with bacteria from freeze culture. Incubate 8 h at 37° C. with 200 rpm. Thereafter, inoculate 500-1000 ml LB containing Amp and Chloro with the 5 ml on culture and grow to OD640 of 0.8-1.0. Chill the culture to +4° C. before induction. Induce the culture with IPTG at a final concentration of 400 μM. Express the protein at room temp 18-23° C. with 200 rpm shaking over night.
The following steps can be performed on the following day: • 1. Spin down the cells in 250 ml centrifuge flasks for 15 min at 7000 rpm (Beckmann Coulte Avanti J-E centrifuge) • 2. Dissolve the pellet from 250 ml culture in 12.5 ml homogenization buffer • 3. (15 mM Tris-HCL pH8, 1 mM EDTA pH8, […], 2.5 mM GSH, 1 Tablet Protease inhibitor per 50 ml buffer) • 4. […] Add 2.5 ml MgCl2 (100 mM) and DNase 12.5 μl (0.8 mg/ml) and incubate on ice for 30 min • 6. Spin down the bacteria debris and save the supernatant, 7000 rpm for 15 min • 7. Isolate the protein containing membranes in the supernatant by ultracentrifugation 120000×g for 2 hour at 4° C. (Sorvall T880 rotor). • 8. Discard the supernatant and dissolve the pellet in 20 mM Potassium phosphate buffer pH7.4 (KH2PO4 and K2HPO4) buffer by sonication (5×10 s, 30% of a 50 W sonifier) and aliquot the enzyme and store aliquots at −80° C.
Before each experiment is performed an aliquot of the enzyme is thawed and it can then be dissolved in 0.1 M Potassium phosphate buffer pH7.4 (KH2PO4 and K2HPO4) buffer containing 2.5 mM GSH.
The aim of this assay is to determine the affinity of a test compound for the mPGES-1 enzyme.
47 μl of recombinant human mPGES-1 (˜0.5 μg protein/well) containing microsomal suspension in a buffer containing GSH, (2.5 mmol/L L-Glutathione reduced, dissolved in 0.1 mol/L Phosphat Buffer pH 7.4) is dispensed in a 384-well plate and thereafter 1 μl of the test compound(s) is/are added and incubated for 25 minutes at room temperature. The enzyme reaction is started by the addition of 2 ul PGH2 (final conc. 2 μM) dissolved in water-free Diglyme. After 60 seconds the reaction is terminated by addition of a stop solution containing FeCl2 (10 μL 0.074 mol/l FeCl2). The samples are diluted between 1:25 in PBS (Phosphate Buffered Saline). 10 μl of the diluted samples are transferred to 384-well low volume plate. In order to quantify the amount of PGE2 that has been formed, a homogenous time resolved fluorescent (HTRF) detecting of PGE2 has been performed using a commercially available kit from Cisbio according to the manufactures recommendation. […] Briefly, the diluted samples are mixed with 5 μl PGE2-d2 conjungate and 5 μl anti-PGE2 cryptate conjungate. After an incubation period of the plates over night, the fluorescence is measured by the use of an appropriate microplate reader.
The quantification plate contains also wells with different concentrations of PGE2 as calibration curve for the calculation of the PGE2 concentrations from the HTRF ratio values.
From all mPGES enzyme assay the background is subtracted and the IC50 is calculated over a nonlinear regression with conventional software.
In general terms: Time-resolved FRET reads energy transfer from a long-lived donor to a nearby acceptor.

T1 sequence (O14684 whole entry): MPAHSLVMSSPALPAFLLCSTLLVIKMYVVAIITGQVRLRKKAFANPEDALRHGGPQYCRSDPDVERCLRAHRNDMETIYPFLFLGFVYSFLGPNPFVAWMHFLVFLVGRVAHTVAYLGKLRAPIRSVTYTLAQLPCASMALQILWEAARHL

As for `Cn1c(Nc2c(Cl)ccc(CNC(=O)C(C)(C)C)c2Cl)nc2cc(C(=O)NCC(F)F)c(OCC(F)F)cc21` [Example 43], the IC50 in experiment [1] and in experiment [2] was 4 nM each time.

Take `Cn1c(Nc2c(Cl)ccc(CNC(=O)C(C)(C)C)c2Cl)nc2cc(C(=O)NCC3CC3(Cl)Cl)c(OCC(F)F)cc21` (stereo not drawn) [Example 44]: the results for the concentration for half-maximal inhibition (IC50) in experiment [1] and in experiment [2] were 1 nM and 3 nM, respectively.

For `Cn1c(Nc2c(Cl)ccc(CNC(=O)C(C)(C)C)c2Cl)nc2cc(C(=O)Nc3ccc(Cl)c(F)c3)c(OCC(F)F)cc21` [Example 45], the values for the IC50 in experiment [1] and in experiment [2] were below 1 nM and 4 nM, respectively.

Turning to `Cn1c(Nc2c(Cl)ccc(CNC(=O)C(C)(C)C)c2Cl)nc2cc(C(=O)NCC3CCC3)c(OCC(F)F)cc21` [Example 46], the IC50 in experiment [1] came out at 1 nM; in experiment [2] it was 3 nM.

Consider `Cn1c(Nc2c(Cl)ccc(CNC(=O)C(C)(C)C)c2Cl)nc2cc(C(=O)Nc3ccc(C(F)(F)F)nc3)c(OCC(F)F)cc21` [Example 47], for which the half-maximal inhibitory concentration (IC50) in experiment [1] was below 1 nM; in experiment [2] it was 3 nM.

On to `Cn1c(Nc2c(Cl)ccc(CNC(=O)C(C)(C)C)c2Cl)nc2cc(C(=O)NCCC(F)(F)F)c(OCC(F)F)cc21` [Example 48], for which the IC50 in experiment [1] came out at 1 nM; in experiment [2], 3 nM.

Consider `COCC1(CNC(=O)c2cc3nc(Nc4c(Cl)ccc(CNC(=O)C(C)(C)C)c4Cl)n(C)c3cc2OCC(F)F)CCCC1` [Example 49], for which the IC50 in experiment [1] came to 1 nM; in experiment [2], 4 nM.

With `COC(=O)c1ccc(NC(=O)c2cc3nc(Nc4c(Cl)ccc(CNC(=O)C(C)(C)C)c4Cl)n(C)c3cc2OCC(F)F)s1` [Example 50], the IC50 in experiment [1] was determined as 1 nM; in experiment [2] it was 4 nM.

As to `Cn1c(Nc2c(Cl)ccc(CNC(=O)C(C)(C)C)c2Cl)nc2cc(C(=O)NCCC3CC3)c(OCC(F)F)cc21` [Example 51], the IC50 in experiment [1] was below 1 nM; in experiment [2], 3 nM.

In the case of `Cn1c(Nc2c(Cl)ccc(CNC(=O)C(C)(C)C)c2Cl)nc2cc(C(=O)NCC3CCCCC3)c(OCC(F)F)cc21` [Example 52], the half-maximal inhibitory concentration (IC50) in experiment [1] was below 1 nM; in experiment [2] it was 4 nM.

For the compound `Cn1c(Nc2c(Cl)ccc(CNC(=O)C(C)(C)C)c2Cl)nc2cc(C(=O)NCC3CC3)c(OCC(F)F)cc21` [Example 53], the half-maximal inhibitory concentration (IC50) in experiment [1] came to 1 nM; in experiment [2] it was 4 nM.

Consider `Cc1ccc(Cl)cc1NC(=O)c1cc2nc(Nc3c(Cl)ccc(CNC(=O)C(C)(C)C)c3Cl)n(C)c2cc1OCC(F)F` [Example 54], for which the IC50 is below 1 nM in experiment [1] and 3 nM in experiment [2].

Turning to `Cn1c(Nc2c(Cl)ccc(CNC(=O)C(C)(C)C)c2Cl)nc2cc(C(=O)NC3CC4CCC3C4)c(OCC(F)F)cc21` (stereo not drawn) [Example 55], the half-maximal inhibitory concentration (IC50) in experiment [1] is below 1 nM; in experiment [2], 4 nM.

Take `CCNC(=O)c1cc2nc(Nc3c(Cl)ccc(CNC(=O)C(C)(C)C)c3Cl)n(C)c2cc1OCC(F)F` [Example 56]: the values for the concentration for half-maximal inhibition (IC50) in experiment [1] and in experiment [2] were 3 nM and 4 nM, respectively.

As for `Cn1c(Nc2c(Cl)ccc(CNC(=O)C(C)(C)C)c2Cl)nc2cc(C(=O)NCCc3ccccc3)c(OCC(F)F)cc21` [Example 57], the concentration for half-maximal inhibition (IC50) in experiment [1] is below 1 nM; in experiment [2], 4 nM.

Regarding `Cn1c(Nc2c(Cl)ccc(CNC(=O)C(C)(C)C)c2Cl)nc2cc(C(=O)NCC(F)(F)F)c(OCC(F)F)cc21` [Example 58], the IC50 in experiment [1] was found to be 2 nM; in experiment [2], 3 nM.

With `Cn1c(Nc2c(Cl)ccc(CNC(=O)C(C)(C)C)c2Cl)nc2cc(C(=O)Nc3ccc4c(c3)CCC4)c(OCC(F)F)cc21` [Example 59], the figures for the IC50 in experiment [1] and in experiment [2] were below 1 nM and 4 nM, respectively.

`Cn1c(Nc2c(Cl)ccc(CNC(=O)C(C)(C)C)c2Cl)nc2cc(C(=O)Nc3ccc(Cl)cc3Cl)c(OCC(F)F)cc21` [Example 60, N-(2,4-dichloro-phenyl)-2-{2,6-dichloro-3-[(2,2-dimethyl-propionylamino)-methyl]-phenylamino}-6-(2,2-difluoro-ethoxy)-1-methyl-1H-benzimidazole-5-carboxylic acid amide]: the IC50 in experiment [1] is below 1 nM; in experiment [2], 3 nM.

As for `Cn1c(Nc2c(Cl)ccc(CNC(=O)C(C)(C)C)c2Cl)nc2cc(C(=O)Nc3ccc(C(F)(F)F)cn3)c(OCC(F)F)cc21` [Example 61], the figures for the 50% inhibitory concentration (IC50) in experiment [1] and in experiment [2] were below 1 nM and 4 nM, respectively.

`Cc1cc(C#N)c(NC(=O)c2cc3nc(Nc4c(Cl)ccc(CNC(=O)C(C)(C)C)c4Cl)n(C)c3cc2OCC(F)F)s1` [Example 62]: the IC50 in experiment [1] worked out at 1 nM; in experiment [2], 2 nM.

Consider `Cc1cc(Cl)cnc1NC(=O)c1cc2nc(Nc3c(Cl)ccc(CNC(=O)C(C)(C)C)c3Cl)n(C)c2cc1OCC(F)F` [Example 63], for which the half-inhibitory concentration (IC50) in experiment [1] came to 1 nM; in experiment [2] it was 3 nM.

On to `Cn1c(Nc2c(Cl)ccc(CNC(=O)C(C)(C)C)c2Cl)nc2cc(C(=O)NC3CCC(F)(F)CC3)c(OCC(F)F)cc21` [Example 64], for which the IC50 in experiment [1] is below 1 nM; in experiment [2] it was 2 nM.

With `Cn1c(Nc2c(Cl)ccc(CNC(=O)C(C)(C)C)c2Cl)nc2cc(C(=O)Nc3ccncc3Cl)c(OCC(F)F)cc21` [Example 65], the results for the concentration for half-maximal inhibition (IC50) in experiment [1] and in experiment [2] were 6 nM and 4 nM, respectively.

As for `Cn1c(Nc2c(Cl)ccc(CNC(=O)C(C)(C)C)c2Cl)nc2cc(C(=O)Nc3cccc(C(F)(F)F)n3)c(OCC(F)F)cc21` [Example 66], the values for the half-inhibitory concentration (IC50) in experiment [1] and in experiment [2] were below 1 nM and 4 nM, respectively.

In the case of `Cn1c(Nc2c(Cl)ccc(CNC(=O)C(C)(C)C)c2Cl)nc2cc(C(=O)Nc3cc(C(F)(F)F)ccn3)c(OCC(F)F)cc21` [Example 67], the values for the IC50 in experiment [1] and in experiment [2] were 1 nM and 2 nM, respectively.

For the compound `Cn1c(Nc2c(Cl)ccc(CNC(=O)C(C)(C)C)c2Cl)nc2cc(C(=O)N[C@H]3CC[C@H](C(F)F)CC3)c(OCC(F)F)cc21` [Example 68], the IC50 in experiment [1] was found to be 1 nM; in experiment [2] it was 2 nM.

As for `Cn1c(Nc2c(F)ccc(CNC(=O)C(C)(C)C)c2F)nc2cc(C(=O)Nc3cc(F)cc(Cl)c3)c(OCC(F)F)cc21` [Example 69], the IC50 in experiment [1] was 3 nM; in experiment [2], 2 nM.

Turning to `Cn1c(Nc2c(Cl)ccc(CNC(=O)C(C)(C)C)c2Cl)nc2cc(C(=O)Nc3nc(C(F)(F)F)cs3)c(F)cc21` [Example 70], the IC50 in experiment [1] worked out at 16 nM; in experiment [2], 4 nM.

`Cc1ccc(CNC(=O)C(C)(C)C)c(C)c1Nc1nc2cc(C(=O)Nc3ccc(F)c(Cl)c3)c(OCC(F)F)cc2n1C` [Example 71]: the IC50 amounted to 16 nM in experiment [1] and 2 nM in experiment [2].

For `Cn1c(Nc2c(F)ccc(CNC(=O)C(C)(C)C)c2F)nc2cc(C(=O)Nc3cccc(F)c3)c(OCC(F)F)cc21` [Example 72], the IC50 in experiment [1] turned out to be 9 nM; in experiment [2], 1 nM.

For the compound `Cn1c(Nc2c(Cl)ccc(CNC(=O)C(C)(C)C)c2Cl)nc2cc(C(=O)Nc3cccc(Cl)c3F)c(OCC(F)F)cc21` [Example 73], the IC50 in experiment [1] was 1 nM; in experiment [2] it was 2 nM.

In the case of `Cn1c(Nc2c(Cl)ccc(CNC(=O)C(C)(C)C)c2Cl)nc2cc(C(=O)Nc3ccc(F)c(F)c3)c(OCC(F)F)cc21` [Example 74], the IC50 was determined as 1 nM in experiment [1] and 9 nM in experiment [2].

`Cn1c(Nc2c(Cl)ccc(CNC(=O)C(C)(C)C)c2F)nc2cc(C(=O)Nc3ccc(F)c(Cl)c3)c(OCC(F)F)cc21` [Example 75, N-(3-Chloro-4-fluoro-phenyl)-2-{6-chloro-2-fluoro-3-[(2,2-dimethyl-propionylamino)-methyl]-phenylamino}-6-(2,2-difluoroethoxy)-1-methyl-1H-benzimidazole-5-carboxylic acid amide]: the IC50 in experiment [1] is below 1 nM; in experiment [2], 2 nM.

What is called IC50 is the concentration at which inhibition is half-maximal.
